Reference: patent US5622962A, “5α-reductase inhibitors” (priority 1995, dated 1997)
Several values for one entry are separate records, joined by “and”; a condition that tells them apart may be missing. Equal entries are not always repeated.

Legend:
[1] = target: T1, Type II 5α-Reductase from Human Prostate (Homo sapiens, UniProt P31213); test: Human Type II 5α-reductase assay (conversion of [3H]-testosterone to 5α-reduced metabolites); format: biochemical; settings: sodium acetate pH 5.5, 25°, 30 min, compared to control reaction mixtures; for inhibition at 0.3 µM: pH 5.5, 0.3 μM, read-out: percent inhibition of Type II AR; for percent inhibition of Type II AR: 0.3 μM
T1 construct: The same procedure as above was used for preparations using tissue from prostate surgery; from tissue; host or cells: human prostate tissue from surgery, homogenate, 100,000×g pellet
T1 sequence (P31213 1-254): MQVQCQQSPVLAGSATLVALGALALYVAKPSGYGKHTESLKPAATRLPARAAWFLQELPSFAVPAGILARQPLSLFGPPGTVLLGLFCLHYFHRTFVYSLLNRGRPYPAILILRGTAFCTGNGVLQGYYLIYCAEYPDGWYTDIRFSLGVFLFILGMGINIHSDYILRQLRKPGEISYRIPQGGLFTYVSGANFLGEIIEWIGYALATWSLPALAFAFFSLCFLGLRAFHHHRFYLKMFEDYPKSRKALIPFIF

[2] = target: T2, Type I 5α-Reductase from Human Scalp (Homo sapiens, UniProt P18405); test: Human Type I 5α-reductase assay (conversion of [3H]-testosterone to 5α-reduced metabolites); format: biochemical; settings: 50 nM [3H]-testosterone, pH 7.5, 25°, 180 min, compared to control reaction mixtures; for inhibition at 0.3 µM: pH 7.5, 0.3 μM, read-out: percent inhibition of Type I AR
T2 construct: Scalp punch biopsies from graft recipient sites were obtained from human hair transplant procedures; from tissue; host or cells: human scalp punch biopsies (hair transplant graft recipient sites), homogenate, 100,000×g pellet
T2 sequence (P18405 1-259): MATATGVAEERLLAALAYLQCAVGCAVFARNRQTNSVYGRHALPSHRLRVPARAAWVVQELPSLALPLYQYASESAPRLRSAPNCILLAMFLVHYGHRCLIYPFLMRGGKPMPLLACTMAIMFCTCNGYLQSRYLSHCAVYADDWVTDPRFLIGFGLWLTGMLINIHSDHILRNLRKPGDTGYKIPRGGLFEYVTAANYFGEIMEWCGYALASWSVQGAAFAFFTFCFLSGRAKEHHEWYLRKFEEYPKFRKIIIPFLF

## CN1C(=O)CC[C@]2(C)c3ccc(Sc4nc5c(ccc6ccccc65)s4)cc3CC[C@@H]12 [Example 163, (+)-(4aR)-(10bR)-4-methyl-8-(2-naphtho<1,2-d>-thiazolylthio)-10b-methyl-1,2,3,4,4a,5,6,10b-octahydrobenzo[f]-quinolin-3-one]
[1]
  inhibition at 0.3 µM: 86%
[2]
  inhibition at 0.3 µM: 80%

## CN1C(=O)CC[C@]2(C)c3ccc(Sc4nc5c(Cl)cccc5s4)cc3CC[C@@H]12 [Example 164, (+)-(4aR)-(10bR)-4-methyl-8-(4-chloro-2-benzothiazolylthio)-10b-methyl-1,2,3,4,4a,5,6,10b-octahydrobenzo[f]quinolin-3-one]
[1]
  percent inhibition of Type II AR: 85% and 79%
  inhibition at 0.3 µM: 86%
[2]; 0.3 μM
  percent inhibition of Type I AR: 87%
[2]
  inhibition at 0.3 µM: 85%

## CN1C(=O)CC[C@]2(C)c3ccc(Sc4nc5cc(Cl)c(Cl)cc5s4)cc3CC[C@@H]12 [Example 165, (+)-(4aR)-(10bR)-4-methyl-8-(5,6-dichloro-2-benzothiazolylthio)-10b-methyl-1,2,3,4,4a,5,6,10b-octahydrobenzo[f]-quinolin-3-one]
[1]
  inhibition at 0.3 µM: 74%
[2]
  inhibition at 0.3 µM: 61%

## CN1C(=O)CC[C@]2(C)c3ccc(Sc4ccc([N+](=O)[O-])cn4)cc3CC[C@@H]12 [Example 166, (+)-(4aR)-(10bR)-4-methyl-8-(5-nitro-2-pyridinylthio)-10b-methyl-1,2,3,4,4a,5,6,10b-octahydrobenzo[f]quinolin-3-one]
[1]
  inhibition at 0.3 µM: 49%
[2]
  inhibition at 0.3 µM: 50%

## CN1C(=O)CC[C@]2(C)c3ccc(Sc4ncccc4[N+](=O)[O-])cc3CC[C@@H]12 [Example 167, (+)-(4aR)-(10bR)-4-methyl-8-(3-nitro-2-pyridinylthio)-10b-methyl-1,2,3,4,4a,5,6,10b-octahydrobenzo[f]quinolin-3-one]
[1]
  inhibition at 0.3 µM: 31%
[2]
  inhibition at 0.3 µM: 62%

## CN1C(=O)CC[C@]2(C)c3ccc(Sc4ccc5cc([N+](=O)[O-])ccc5n4)cc3CC[C@@H]12 [Example 168, (+)-(4aR)-(10bR)-4-methyl-8-(6-nitro-2-quinolinylthio)-10b-methyl-1,2,3,4,4a,5,6,10b-octahydrobenzo[f]quinolin-3-one]
[1]
  inhibition at 0.3 µM: 41%
[2]
  inhibition at 0.3 µM: 85%

## CN1C(=O)CC[C@]2(C)c3ccc(Sc4ccc5c([N+](=O)[O-])cccc5n4)cc3CC[C@@H]12 [Example 169, (+)-(4aR)-(10bR)-4-methyl-8-(5-nitro-2-quinolinylthio)-10b-methyl-1,2,3,4,4a,5,6,10b-octahydrobenzo[f]quinolin-3-one]
[1]
  inhibition at 0.3 µM: 61%
[2]
  inhibition at 0.3 µM: 75%

## CN1C(=O)CC[C@]2(C)c3ccc(Sc4ccc(-c5ccccc5)nn4)cc3CC[C@@H]12 [Example 171, (+)-(4aR)-(10bR)-4-methyl-8-(6-phenyl-3-pyridazinylthio)-10b-methyl-1,2,3,4,4a,5,6,10b-octahydrobenzo[f]quinolin-3-one]
[1]
  inhibition at 0.3 µM: 63%
[2]
  inhibition at 0.3 µM: 43%

## CN1C(=O)CC[C@]2(C)c3ccc(Sc4nc(-c5ccccc5)nc5ccccc45)cc3CC[C@@H]12 [Example 172, (+)-(4aR)-(10bR)-4-methyl-8-(2-phenyl-4-quinazolinylthio)-10b-methyl-1,2,3,4,4a,5,6,10b-octahydrobenzo[f]quinolin-3-one]
[1]
  inhibition at 0.3 µM: 36%
[2]
  inhibition at 0.3 µM: 55%

## CN1C(=O)CC[C@]2(C)c3ccc(Sc4ccc5cc(F)ccc5n4)cc3CC[C@@H]12 [Example 173, (+)-(4aR)-(10bR)-4-methyl-8-(6-fluoro-2-quinolinylthio)-10b-methyl-1,2,3,4,4a,5,6,10b-octahydrobenzo[f]quinolin-3-one]
[1]
  percent inhibition of Type II AR: 77%
  inhibition at 0.3 µM: 78%
[2]
  inhibition at 0.3 µM: 65%

## CN1C(=O)CC[C@]2(C)c3ccc(Sc4ccc5cccc(F)c5n4)cc3CC[C@@H]12 [Example 174, (+)-(4aR)-(10bR)-4-methyl-8-(8-fluoro-2-quinolinylthio)-10b-methyl-1,2,3,4,4a,5,6,10b-octahydrobenzo[f]quinolin-3-one]
[1]
  inhibition at 0.3 µM: 80%
[2]
  inhibition at 0.3 µM: 82%

## CN1C(=O)CC[C@]2(C)c3ccc(Sc4nccc5sccc45)cc3CC[C@@H]12 [Example 175, (+)-(4aR)-(10bR)-4-methyl-8-(4-thieno [3,2-c]pyridylthio)-10b-methyl-1,2,3,4,4a,5,6,10b-octahydrobenzo[f]quinolin-3-on]
[1]
  inhibition at 0.3 µM: 40%
[2]
  inhibition at 0.3 µM: 58%

## CN1C(=O)CC[C@]2(C)c3ccc(Sc4ccc5nc6ccccc6c(=O)n5n4)cc3CC[C@@H]12 [Example 176, (+)-(4aR)-(10bR)-4-methyl-8-(10-oxo-10H-2-pyridazino[6,1-b]-quinazolinylthio)-10b-methyl-1,2,3,4,4a,5,6,10b-octahydrobenzo[f]quinolin-3-one]
[1]
  inhibition at 0.3 µM: 15%
[2]
  inhibition at 0.3 µM: 25%

## CN1C(=O)CC[C@]2(C)c3ccc(Sc4nc(-c5ccccc5)cc5ccccc45)cc3CC[C@@H]12 [Example 177, (+)-(4aR)-(10bR)-4-methyl-8-(3-phenyl-1-isoquinolinylthio)-10b-methyl-1,2,3,4,4a,5,6,10b-octahydrobenzo[f]quinolin-3-one]
[1]
  inhibition at 0.3 µM: 15%
[2]
  inhibition at 0.3 µM: 58%

## COc1ccc(-c2c(-c3ccccc3)c(Sc3ccc4c(c3)CC[C@H]3N(C)C(=O)CC[C@]43C)nc3ccccc23)cc1 [Example 179, (+)-(4aR)-(10bR)-4-methyl-8-[3-phenyl-4-(4-methoxyphenyl)-2-quinolinylthio]-10b-methyl-1,2,3,4,4a,5,6, 10b-octahydrobenzo[f]quinolin-3-one]
[1]
  inhibition at 0.3 µM: 28%
[2]
  inhibition at 0.3 µM: 61%

## CN1C(=O)CC[C@]2(C)c3ccc(Sc4nsc5ccccc45)cc3CC[C@@H]12 [Example 180, (+)-(4aR)-(10bR)-4-methyl-8-(3-[1,2-benzisothiazolyl]thio)-10b-methyl-1,2,3,4,4a,5,6,10b-octahydrobenzo[f]quinolin-3-one]
[1]
  inhibition at 0.3 µM: 30%
[2]
  inhibition at 0.3 µM: 59%

## CN1C(=O)CC[C@]2(C)c3ccc(Sc4cc(-c5ccccc5)cc(-c5ccccc5)n4)cc3CC[C@@H]12 [Example 181, (+)-(4aR)-(10bR)-4-methyl-8-(2-[4,6-diphenyl]pyridylthio)-10b-methyl-1,2,3,4,4a,5,6,10b-octahydrobenzo[f]quinolin-3-one]
[1]
  inhibition at 0.3 µM: 31%
[2]
  inhibition at 0.3 µM: 63%

## COc1cccc2sc(Sc3ccc4c(c3)CC[C@H]3N(C)C(=O)CC[C@]43C)nc12 [Example 182, (+)-(4aR)-(10bR)-4-methyl-8-(4-methoxy-2-benzothiazolylthio)-10b-methyl-1,2,3,4,4a,5,6,10b-octahydrobenzo[f]quinolin-3-one]
[1]
  inhibition at 0.3 µM: 100%
[2]
  inhibition at 0.3 µM: 63%

## CN1C(=O)CC[C@]2(C)c3ccc(Sc4nc5c(Br)cccc5s4)cc3CC[C@@H]12 [Example 183, (+)-(4aR)-(10bR)-4-methyl-8-(4-bromo-2-benzothiazolylthio)-10b-methyl-1,2,3,4,4a,5,6,10b-octahydrobenzo[f]quinolin-3-one]
[1]
  percent inhibition of Type II AR: 87%
  inhibition at 0.3 µM: 88%
[2]
  inhibition at 0.3 µM: 89%

## CN1C(=O)CC[C@]2(C)c3ccc(Sc4nc5c(-c6ccccc6)cccc5s4)cc3CC[C@@H]12 [Example 184, (+)-(4aR)-(10bR)-4-methyl-8-(4-phenyl-2-benzothiazolylthio)-10b-methyl-1,2,3,4,4a,5,6,10b-octahydrobenzo[f]quinolin-3-one]
[1]
  inhibition at 0.3 µM: 81%
[2]
  inhibition at 0.3 µM: 73%

## Cc1ccc(C)c2sc(Sc3ccc4c(c3)CC[C@H]3N(C)C(=O)CC[C@]43C)nc12 [Example 185, (+)-(4aR)-(10bR)-4-methyl-8-(4,7-dimethyl-2-benzothiazolylthio)-10b-methyl-1,2,3,4,4a,5,6,10b-octahydrobenzo[f]-quinolin-3-one]
[1]
  inhibition at 0.3 µM: 90%
[2]
  inhibition at 0.3 µM: 88%

## CCCc1cccc2sc(Sc3ccc4c(c3)CC[C@H]3N(C)C(=O)CC[C@]43C)nc12 [Example 186, (+)-(4aR)-(10bR)-4-methyl-8-(4-propyl-2-benzothiazolylthio)-10b-methyl-1,2,3,4,4a,5,6,10b-octahydrobenzo[f]quinolin-3-one]
[1]
  inhibition at 0.3 µM: 79%
[2]
  inhibition at 0.3 µM: 90%

## CCc1cccc2sc(Sc3ccc4c(c3)CC[C@H]3N(C)C(=O)CC[C@]43C)nc12 [Example 187, (+)-(4aR)-(10bR)-4-methyl-8-(4-ethyl-2-benzothiazolylthio)-10b-methyl-1,2,3,4,4a,5,6,10b-octahydrobenzo[f]quinolin-3-one]
[1]
  inhibition at 0.3 µM: 94%
[2]
  inhibition at 0.3 µM: 93%

## CN1C(=O)CC[C@]2(C)c3ccc(Sc4nc5c(OC(F)(F)F)cccc5s4)cc3CC[C@@H]12 [Example 188, (+)-(4aR)-(10bR)-4-methyl-8-(4-trifluoromethoxy-2-benzothiazolylthio)-10b-methyl-1,2,3,4,4a,5,6,10b-octahydrobenzo[f]-quinolin-3-one]
[1]
  inhibition at 0.3 µM: 78%
[2]
  inhibition at 0.3 µM: 88%
